Data reported in PubChem BioAssay AID330 (DTP/NCI, 2004).
Where “and” joins values, the source holds several entries; their conditions need not be identical. Identical values can stand only once. Toxic doses and inconclusive results are not listed. Rule for the calls: active = survival T/C of 150% or more; inactive = T/C below 125% in these data.

System: P388 leukemia ip, CD2F1 mice, survival T/C
Assay: NCI In Vivo Anticancer Drug Screen. Data for tumor model P388 Leukemia (intraperitoneal) in CD2F1 (CDF1) mice
Conditions: endpoint: median survival time, higher = longer survival
Outline: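 Mice carrying the transplanted tumor received test compound or vehicle. Survival was recorded in each group, and the value is the treated-group measurement divided by that of the vehicle-treated control group.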

[1] = dose: 15.0 mg/kg/injection, schedule: Q01DX005 (ip), vehicle: saline with Tween-80
[2] = dose: 30.0 mg/kg/injection, schedule: Q01DX005 (ip), vehicle: saline with Tween-80
[3] = dose: 60.0 mg/kg/injection, schedule: Q01DX005 (ip), vehicle: saline with Tween-80
[4] = dose: 120.0 mg/kg/injection, schedule: Q01DX005 (ip), vehicle: saline with Tween-80
[5] = dose: 240.0 mg/kg/injection, schedule: Q01DX005 (ip), vehicle: saline with Tween-80
[6] = dose: 6.25 mg/kg/injection, schedule: Q01DX005 (ip), vehicle: saline with Tween-80
[7] = dose: 12.5 mg/kg/injection, schedule: Q01DX005 (ip), vehicle: saline with Tween-80
[8] = dose: 25.0 mg/kg/injection, schedule: Q01DX005 (ip), vehicle: saline with Tween-80
[9] = dose: 50.0 mg/kg/injection, schedule: Q01DX009 (ip), vehicle: saline with Tween-80
[10] = dose: 100.0 mg/kg/injection, schedule: Q01DX009 (ip), vehicle: saline with Tween-80
[11] = dose: 200.0 mg/kg/injection, schedule: Q01DX009 (ip), vehicle: saline with Tween-80
[12] = dose: 50.0 mg/kg/injection, schedule: Q01DX005 (ip), vehicle: saline with Tween-80
[13] = dose: 100.0 mg/kg/injection, schedule: Q01DX005 (ip), vehicle: saline with Tween-80
[14] = dose: 200.0 mg/kg/injection, schedule: Q01DX005 (ip), vehicle: saline with Tween-80
[15] = dose: 25.0 mg/kg/injection, schedule: Q01DX009 (ip), vehicle: saline with Tween-80

Measured: T/C

CCN(CC)c1ccc(NCS(=O)(=O)O)cc1
inactive: dose: 50.0 mg/kg/injection, schedule: Q04DX003 (ip), vehicle: saline sonified 95 % of control | dose: 100.0 mg/kg/injection, schedule: Q04DX003 (ip), vehicle: saline sonified 90 % of control | dose: 200.0 mg/kg/injection, schedule: Q04DX003 (ip), vehicle: saline sonified 100 % of control

Clc1ccc(N=Cc2ccc(C=Nc3ccc(Cl)cc3)cc2)cc1
inactive: dose: 6.25 mg/kg/injection, schedule: Q01DX009 (ip), vehicle: Klucel (hydroxypropylcellulose) (HPC) 94 % of control | dose: 12.5 mg/kg/injection, schedule: Q01DX009 (ip), vehicle: Klucel (hydroxypropylcellulose) (HPC) 91 % of control | dose: 25.0 mg/kg/injection, schedule: Q01DX009 (ip), vehicle: Klucel (hydroxypropylcellulose) (HPC) 94 % of control

Cc1nn2c(-c3snnc3C)nnc2s1
inactive: dose: 100.0 mg/kg/injection, schedule: Q01DX001 (ip), vehicle: Klucel (hydroxypropylcellulose) (HPC) 99 % of control | dose: 200.0 mg/kg/injection, schedule: Q01DX001 (ip), vehicle: Klucel (hydroxypropylcellulose) (HPC) 100 % of control | dose: 400.0 mg/kg/injection, schedule: Q01DX001 (ip), vehicle: Klucel (hydroxypropylcellulose) (HPC) 100 % of control

CCOP(OCC)SSCn1nc2ccc3ccccc3n2c1=O
inactive: [1] 98 % of control | [2] 97 % of control | [3] 103 % of control

COc1ccc(CCN(C)CCCC(C#N)(c2ccc(OC)c(OC)c2)C(C)C)cc1OC (centres undefined)
inactive: dose: 1.0 mg/kg/injection, schedule: Q02HX018 (sc), vehicle: water 99 % of control | dose: 2.0 mg/kg/injection, schedule: Q02HX018 (sc), vehicle: water 99 % of control | dose: 4.0 mg/kg/injection, schedule: Q02HX006 (sc), vehicle: saline with Tween-80 100 % of control | dose: 4.0 mg/kg/injection, schedule: Q02HX018 (sc), vehicle: water 103 % of control | dose: 8.0 mg/kg/injection, schedule: Q02HX006 (sc), vehicle: saline with Tween-80 96 % of control | dose: 8.0 mg/kg/injection, schedule: Q02HX018 (sc), vehicle: water 110 % of control | dose: 8.0 mg/kg/injection, schedule: Q03HX006 (ip), vehicle: saline 104 % of control | dose: 16.0 mg/kg/injection, schedule: Q02HX006 (sc), vehicle: saline with Tween-80 106 % of control | dose: 16.0 mg/kg/injection, schedule: Q02HX018 (sc), vehicle: water 108 % of control | dose: 16.0 mg/kg/injection, schedule: Q03HX006 (ip), vehicle: saline 101 % of control | dose: 32.0 mg/kg/injection, schedule: Q02HX006 (sc), vehicle: saline with Tween-80 82 % of control | dose: 32.0 mg/kg/injection, schedule: Q03HX006 (ip), vehicle: saline 103 % of control | dose: 64.0 mg/kg/injection, schedule: Q02HX006 (sc), vehicle: saline with Tween-80 19 % of control

C[n+]1c2ccccc2c(N=[N+]=[N-])c2ccccc21
inactive: dose: 6.25 mg/kg/injection, schedule: Q01DX009 (ip), vehicle: saline 100 % of control | dose: 12.5 mg/kg/injection, schedule: Q01DX009 (ip), vehicle: saline 98 % of control | dose: 25.0 mg/kg/injection, schedule: Q01DX009 (ip), vehicle: saline 105 % of control | dose: 50.0 mg/kg/injection, schedule: Q01DX009 (ip), vehicle: saline 109 % of control

COC(=O)C(=O)C(C#N)c1ccc([N+](=O)[O-])cc1 (centres undefined)
inactive: [3] 101 % of control | [4] 93 % of control | [5] 95 % of control

C#CCN(C)CCO
inactive: dose: 100.0 mg/kg/injection, schedule: Q01DX009 (ip), vehicle: saline 111 % of control | dose: 200.0 mg/kg/injection, schedule: Q01DX009 (ip), vehicle: saline 111 % of control | dose: 400.0 mg/kg/injection, schedule: Q01DX009 (ip), vehicle: saline 116 % of control

O=C(O)CCCc1ccc(N(CCO)CCO)cc1
inactive: dose: 100.0 mg/kg/injection, schedule: Q04DX003 (ip), vehicle: saline 114 % of control | dose: 200.0 mg/kg/injection, schedule: Q04DX003 (ip), vehicle: saline 109 % of control | dose: 400.0 mg/kg/injection, schedule: Q04DX003 (ip), vehicle: saline 103 % of control

Fc1ccc2cc3cccc[n+]3cc2c1
inactive: [6] 100 % of control | [7] 99 % of control | [8] 99 % of control

C/C=C/N=NNc1ccc(OC)cc1
inactive: dose: 100.0 mg/kg/injection, schedule: Q04DX003 (ip), vehicle: saline + Tween-80 + alcohol 105 % of control | dose: 200.0 mg/kg/injection, schedule: Q04DX003 (ip), vehicle: saline + Tween-80 + alcohol 99 % of control

N#CC(OC(=O)c1ccccc1)C(OC(=O)c1ccccc1)C(OC(=O)c1ccccc1)C(COC(=O)c1ccccc1)OC(=O)c1ccccc1 (centres undefined)
inactive: [6] 97 % of control | [7] 95 % of control | [8] 86 % of control

CSc1ccc(N2C(=O)CSC2=O)cc1
inactive: [9] 106 % of control | [10] 114 % of control | [11] 109 % of control

Cn1c(COc2ccc(/C=N/Nc3ccnc(N/N=C/c4ccc(OCc5c[n+]6ccccc6n5C)cc4)n3)cc2)c[n+]2ccccc12
inactive: [7] 105 % of control | [8] 106 % of control | [12] 104 % of control and 107 % of control | [13] 99 % of control | [14] 97 % of control

CCCCCCCCSc1nc(Nc2cc(C(C)(C)C)c(O)c(C(C)(C)C)c2)nc(SCCCCCCCC)n1
inactive: dose: 12.5 mg/kg/injection, schedule: Q01DX009 (ip), vehicle: saline with Tween-80 105 % of control | [15] 104 % of control | [9] 99 % of control and 92 % of control | [11] 100 % of control

Cc1ccc(S(=O)(=O)C2(NC(=O)c3ccc(Cl)cc3)CC2)cc1
inactive: dose: 30.0 mg/kg/injection, schedule: Q01DX005 (ip), vehicle: Klucel (hydroxypropylcellulose) (HPC) 92 % of control and 94 % of control | dose: 60.0 mg/kg/injection, schedule: Q01DX005 (ip), vehicle: Klucel (hydroxypropylcellulose) (HPC) 93 % of control | dose: 120.0 mg/kg/injection, schedule: Q01DX005 (ip), vehicle: Klucel (hydroxypropylcellulose) (HPC) 86 % of control and 91 % of control and 92 % of control

O=C(O)C(c1ccccc1)N1C(=O)C(Cl)=C(Cl)C1=O (centres undefined)
inactive: [1] 94 % of control | [2] 100 % of control | [3] 103 % of control and 112 % of control

CCS[C@@H](C(O)C(O)C(O)C(O)CO)n1cnc2c(Cl)ncnc21 (some centres undefined)
inactive: [12] 98 % of control | [13] 102 % of control | [14] 96 % of control

CNC(=O)OCCC(OC(=O)NC)C1CCC2C3CCC4CCCCC4(C)C3CCC12C (centres undefined)
inactive: dose: 100.0 mg/kg/injection, schedule: Q04DX002 (ip), vehicle: Klucel (hydroxypropylcellulose) (HPC) 113 % of control | dose: 200.0 mg/kg/injection, schedule: Q04DX002 (ip), vehicle: Klucel (hydroxypropylcellulose) (HPC) 103 % of control | dose: 400.0 mg/kg/injection, schedule: Q04DX002 (ip), vehicle: Klucel (hydroxypropylcellulose) (HPC) 110 % of control

CC(=O)Nc1ccc(S(=O)(=O)N/N=C/c2cccc([N+](=O)[O-])c2O)cc1
inactive: [3] 104 % of control | [4] 104 % of control | [5] 103 % of control

O=C(N=C=S)c1ccc(Cl)c(Cl)c1
inactive: [15] 94 % of control | [9] 95 % of control | [10] 95 % of control | [11] 103 % of control

C[P+](C)(C)C
inactive: [3] 87 % of control | [4] 93 % of control
